Where two headings read alike, the source gives them in different places. Positions of bridges follow the written chain, without caps; N, C: chain ends. Residues, ends and D or L forms follow the SMILES beside them.
Experiments:
Assay type in all cases: binding
[1] = target: T1, FGF-R4 ECD (Homo sapiens, UniProt P22455); assay: single concentration BLI of crude peptides; details: read-out: KD (4)
T1 construct: DNA constructs for the extracellular domain (ECD) of human FGF-; HPC4 (C); made in house; host or cells: HEK 293-6E
T1 sequence (P22455 22-369 limits assumed): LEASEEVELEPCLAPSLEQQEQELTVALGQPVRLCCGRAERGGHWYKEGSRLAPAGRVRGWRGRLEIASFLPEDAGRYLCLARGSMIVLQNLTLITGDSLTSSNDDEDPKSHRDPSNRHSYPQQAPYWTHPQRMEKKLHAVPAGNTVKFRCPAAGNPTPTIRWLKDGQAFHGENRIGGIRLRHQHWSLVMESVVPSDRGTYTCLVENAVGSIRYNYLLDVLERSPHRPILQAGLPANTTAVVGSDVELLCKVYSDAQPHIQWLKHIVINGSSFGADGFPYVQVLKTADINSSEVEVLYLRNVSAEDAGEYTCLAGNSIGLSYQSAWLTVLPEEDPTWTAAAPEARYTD
Summary of the method: (§1)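 BLI, streptavidin sensors loaded with biotinylated receptor ECD. Single-point: ~1 μM crude peptide, PBS pH7.4/0.05% Tween-20/0.01% BSA; association then dissociation in buffer. KD corrected for UPLC-CAD-determined concentration.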

[2] = target: T2, FGF-R3C ECD (Homo sapiens, UniProt P22607); assay: biochemical; design: DNA constructs for the extracellular domain (ECD) of human FGF-; HPC4 (C); made in house; host or cells: HEK 293-6E
T2 sequence (P22607 23-375 limits assumed): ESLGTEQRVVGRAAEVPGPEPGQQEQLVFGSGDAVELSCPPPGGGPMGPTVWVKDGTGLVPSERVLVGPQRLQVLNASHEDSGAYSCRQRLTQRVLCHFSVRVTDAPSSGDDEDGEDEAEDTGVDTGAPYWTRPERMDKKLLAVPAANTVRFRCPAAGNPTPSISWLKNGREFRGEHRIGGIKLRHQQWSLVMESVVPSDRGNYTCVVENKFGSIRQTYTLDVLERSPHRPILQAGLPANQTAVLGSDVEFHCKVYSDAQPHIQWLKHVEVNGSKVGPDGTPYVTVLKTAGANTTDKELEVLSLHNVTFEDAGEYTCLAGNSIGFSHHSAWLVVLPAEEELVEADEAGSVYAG
Summary of the method: as §1

[3] = target: T3, FGF-R1C ECD (Homo sapiens, UniProt P11362); assay: biochemical; design: DNA constructs for the extracellular domain (ECD) of human FGF-; HPC4 (C); made in house; host or cells: HEK 293-6E
T3 sequence (P11362 22-376 limits assumed): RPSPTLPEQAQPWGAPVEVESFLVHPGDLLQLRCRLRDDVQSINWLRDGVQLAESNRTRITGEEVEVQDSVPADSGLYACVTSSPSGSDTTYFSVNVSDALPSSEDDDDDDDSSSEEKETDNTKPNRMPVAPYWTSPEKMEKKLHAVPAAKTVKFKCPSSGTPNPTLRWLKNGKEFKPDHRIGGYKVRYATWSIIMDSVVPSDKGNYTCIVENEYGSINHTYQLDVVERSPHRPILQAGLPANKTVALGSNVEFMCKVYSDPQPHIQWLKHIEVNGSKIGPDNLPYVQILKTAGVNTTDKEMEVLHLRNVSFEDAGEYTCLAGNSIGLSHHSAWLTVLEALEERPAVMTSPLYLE
Summary of the method: as §1

[4] = crude NNK peptides, single concentration BLI (Table S3)
[5] = crude T18 selection 1 (1:1:1) peptides, single concentration BLI (Table S4)

Structure (SMILES) | Kd [1, 4] [nM] | Kd [2] [nM] | Kd [3] [nM] | Kd [1, 5] [nM]
CC[C@H](C)[C@@H]1NC(=O)[C@H](Cc2ccc(O)cc2)NC(=O)[C@H](Cc2c[nH]cn2)NC(=O)[C@@H](NC(=O)[C@H](CCSC)NC(C)=O)CSSC[C@@H](C(=O)NCC(=O)N[C@@H](CO)C(=O)NCC(=O)N[C@@H](CO)C(=O)N[C@@H](CC(=O)O)C(=O)N[C@@H](Cc2ccc(O)cc2)C(=O)N[C@@H](CCCCN)C(=O)N[C@@H](CC(=O)O)C(=O)N[C@@H](CC(=O)O)C(=O)N[C@@H](CC(=O)O)C(=O)N[C@@H](CC(=O)O)C(=O)N[C@@H](CCCCN)C(N)=O)NC(=O)[C@H](CC(C)C)NC(=O)[C@H](Cc2c[nH]c3ccccc23)NC(=O)[C@H](CC(=O)O)NC(=O)[C@H](CO)NC1=O (Ac-MCHYISDWLCGSGSDYKDDDDK-NH2; disulfide 2-10) | > 10000 | > 10000 | > 10000 | –
CC[C@H](C)[C@@H]1NC(=O)[C@@H](NC(=O)[C@H](CCSC)NC(C)=O)CSSC[C@@H](C(=O)NCC(=O)N[C@@H](CO)C(=O)NCC(=O)N[C@@H](CO)C(=O)N[C@@H](CC(=O)O)C(=O)N[C@@H](Cc2ccc(O)cc2)C(=O)N[C@@H](CCCCN)C(=O)N[C@@H](CC(=O)O)C(=O)N[C@@H](CC(=O)O)C(=O)N[C@@H](CC(=O)O)C(=O)N[C@@H](CC(=O)O)C(=O)N[C@@H](CCCCN)C(N)=O)NC(=O)[C@H](C(C)C)NC(=O)[C@H](C(C)C)NC(=O)[C@H](Cc2c[nH]c3ccccc23)NC(=O)[C@H](Cc2ccccc2)NC(=O)[C@H](CC(=O)O)NC(=O)[C@H](CO)NC(=O)[C@H](CC(C)C)NC(=O)[C@H](CCCNC(=N)N)NC(=O)[C@H](Cc2c[nH]cn2)NC1=O (Ac-MCIHRLSDFWVVCGSGSDYKDDDDK-NH2; disulfide 2-13) | 41 | 49 | 19 | –
CC[C@H](C)[C@@H]1NC(=O)[C@@H](NC(=O)[C@H](CCSC)NC(C)=O)CSSC[C@@H](C(=O)NCC(=O)N[C@@H](CO)C(=O)NCC(=O)N[C@@H](CO)C(=O)N[C@@H](CC(=O)O)C(=O)N[C@@H](Cc2ccc(O)cc2)C(=O)N[C@@H](CCCCN)C(=O)N[C@@H](CC(=O)O)C(=O)N[C@@H](CC(=O)O)C(=O)N[C@@H](CC(=O)O)C(=O)N[C@@H](CC(=O)O)C(=O)N[C@@H](CCCCN)C(N)=O)NC(=O)[C@H](CC(C)C)NC(=O)[C@H](CC(C)C)NC(=O)[C@H](Cc2ccc(O)cc2)NC(=O)[C@H](Cc2ccc(O)cc2)NC(=O)[C@H](Cc2ccccc2)NC(=O)[C@H](CC(C)C)NC(=O)[C@H](Cc2c[nH]cn2)NC(=O)[C@H](CC(C)C)NC(=O)[C@H](CC(=O)O)NC(=O)[C@H](CCCCN)NC1=O (Ac-MCIKDLHLFYYLLCGSGSDYKDDDDK-NH2; disulfide 2-14) | – | > 10000 | 30 | 14
CC[C@H](C)[C@@H]1NC(=O)[C@@H](NC(=O)[C@H](CCSC)NC(C)=O)CSSC[C@@H](C(=O)NCC(=O)N[C@@H](CO)C(=O)NCC(=O)N[C@@H](CO)C(=O)N[C@@H](CC(=O)O)C(=O)N[C@@H](Cc2ccc(O)cc2)C(=O)N[C@@H](CCCCN)C(=O)N[C@@H](CC(=O)O)C(=O)N[C@@H](CC(=O)O)C(=O)N[C@@H](CC(=O)O)C(=O)N[C@@H](CC(=O)O)C(=O)N[C@@H](CCCCN)C(N)=O)NC(=O)[C@H](CO)NC(=O)[C@H](CO)NC(=O)[C@H](CCCNC(=N)N)NC(=O)[C@H](Cc2c[nH]c3ccccc23)NC(=O)[C@H](CC(C)C)NC(=O)[C@H](CC(C)C)NC(=O)[C@H](Cc2ccccc2)NC(=O)[C@H]([C@@H](C)O)NC(=O)[C@H](CCCCN)NC1=O (Ac-MCIKTFLLWRSSCGSGSDYKDDDDK-NH2; disulfide 2-13) | > 10000 | > 10000 | > 10000 | –
CC[C@H](C)[C@@H]1NC(=O)[C@@H](NC(=O)[C@H](CCSC)NC(C)=O)CSSC[C@@H](C(=O)NCC(=O)N[C@@H](CO)C(=O)NCC(=O)N[C@@H](CO)C(=O)N[C@@H](CC(=O)O)C(=O)N[C@@H](Cc2ccc(O)cc2)C(=O)N[C@@H](CCCCN)C(=O)N[C@@H](CC(=O)O)C(=O)N[C@@H](CC(=O)O)C(=O)N[C@@H](CC(=O)O)C(=O)N[C@@H](CC(=O)O)C(=O)N[C@@H](CCCCN)C(N)=O)NC(=O)[C@H](CCCNC(=N)N)NC(=O)CNC(=O)[C@H](CCCNC(=N)N)NC(=O)[C@H](CC(C)C)NC(=O)[C@H](C(C)C)NC(=O)[C@H](CCCCN)NC(=O)[C@H](Cc2ccc(O)cc2)NC(=O)[C@H](CC(C)C)NC(=O)[C@H](CC(C)C)NC1=O (Ac-MCILLYKVLRGRCGSGSDYKDDDDK-NH2; disulfide 2-13) | 128 | > 10000 | > 10000 | –
CC[C@H](C)[C@@H]1NC(=O)[C@@H](NC(=O)[C@H](CCSC)NC(C)=O)CSSC[C@@H](C(=O)NCC(=O)N[C@@H](CO)C(=O)NCC(=O)N[C@@H](CO)C(=O)N[C@@H](CC(=O)O)C(=O)N[C@@H](Cc2ccc(O)cc2)C(=O)N[C@@H](CCCCN)C(=O)N[C@@H](CC(=O)O)C(=O)N[C@@H](CC(=O)O)C(=O)N[C@@H](CC(=O)O)C(=O)N[C@@H](CC(=O)O)C(=O)N[C@@H](CCCCN)C(N)=O)NC(=O)[C@H](Cc2c[nH]cn2)NC(=O)[C@H](CO)NC(=O)[C@H]([C@@H](C)CC)NC(=O)[C@H](CC(C)C)NC(=O)[C@H](Cc2ccc(O)cc2)NC(=O)[C@H](Cc2ccc(O)cc2)NC(=O)[C@H](Cc2ccccc2)NC(=O)[C@H](CC(C)C)NC(=O)[C@H](Cc2ccc(O)cc2)NC(=O)[C@H](CCCNC(=N)N)NC1=O (Ac-MCIRYLFYYLISHCGSGSDYKDDDDK-NH2; disulfide 2-14) | – | > 10000 | > 10000 | 2
CC[C@H](C)[C@@H]1NC(=O)[C@@H](NC(=O)[C@H](CCSC)NC(C)=O)CSSC[C@@H](C(=O)NCC(=O)N[C@@H](CO)C(=O)NCC(=O)N[C@@H](CO)C(=O)N[C@@H](CC(=O)O)C(=O)N[C@@H](Cc2ccc(O)cc2)C(=O)N[C@@H](CCCCN)C(=O)N[C@@H](CC(=O)O)C(=O)N[C@@H](CC(=O)O)C(=O)N[C@@H](CC(=O)O)C(=O)N[C@@H](CC(=O)O)C(=O)N[C@@H](CCCCN)C(N)=O)NC(=O)[C@@H]2CCCN2C(=O)[C@H](CCCNC(=N)N)NC(=O)[C@H](Cc2c[nH]c3ccccc23)NC(=O)[C@H](CCC(=O)O)NC(=O)[C@H](CCC(=O)O)NC(=O)[C@H](Cc2c[nH]c3ccccc23)NC(=O)[C@H](CCCCN)NC(=O)[C@H](CC(N)=O)NC(=O)[C@H](CCCCN)NC(=O)[C@H](CCCNC(=N)N)NC(=O)[C@H]([C@@H](C)O)NC1=O (Ac-MCITRKNKWEEWRPCGSGSDYKDDDDK-NH2; disulfide 2-15) | – | > 10000 | > 10000 | > 10000
CC[C@H](C)[C@@H]1NC(=O)[C@@H](NC(=O)[C@H](CCSC)NC(C)=O)CSSC[C@@H](C(=O)NCC(=O)N[C@@H](CO)C(=O)NCC(=O)N[C@@H](CO)C(=O)N[C@@H](CC(=O)O)C(=O)N[C@@H](Cc2ccc(O)cc2)C(=O)N[C@@H](CCCCN)C(=O)N[C@@H](CC(=O)O)C(=O)N[C@@H](CC(=O)O)C(=O)N[C@@H](CC(=O)O)C(=O)N[C@@H](CC(=O)O)C(=O)N[C@@H](CCCCN)C(N)=O)NC(=O)[C@H](C(C)C)NC(=O)[C@H](C)NC(=O)[C@H](Cc2c[nH]c3ccccc23)NC(=O)[C@H](Cc2ccccc2)NC(=O)[C@H](CC(=O)O)NC(=O)[C@H](CO)NC(=O)[C@H](CC(C)C)NC(=O)[C@H](CCCNC(=N)N)NC(=O)[C@H](Cc2ccc(O)cc2)NC1=O (Ac-MCIYRLSDFWAVCGSGSDYKDDDDK-NH2; disulfide 2-13) | 133 | 49 | 21 | –

Source: paper PMC10763615, “Identification and engineering of potent cyclic peptides with selective or promiscuous binding through biochemical profiling and bioinformatic data analysis” (RSC Chemical Biology, 2023)
